The target of one test is T1, AR in LNCaP cytosol (Homo sapiens, UniProt P10275, T878A).
T1 construct: endogenous in cells; host or cells: LNCaP cytosol
T1 sequence (P10275 1-920 T878A): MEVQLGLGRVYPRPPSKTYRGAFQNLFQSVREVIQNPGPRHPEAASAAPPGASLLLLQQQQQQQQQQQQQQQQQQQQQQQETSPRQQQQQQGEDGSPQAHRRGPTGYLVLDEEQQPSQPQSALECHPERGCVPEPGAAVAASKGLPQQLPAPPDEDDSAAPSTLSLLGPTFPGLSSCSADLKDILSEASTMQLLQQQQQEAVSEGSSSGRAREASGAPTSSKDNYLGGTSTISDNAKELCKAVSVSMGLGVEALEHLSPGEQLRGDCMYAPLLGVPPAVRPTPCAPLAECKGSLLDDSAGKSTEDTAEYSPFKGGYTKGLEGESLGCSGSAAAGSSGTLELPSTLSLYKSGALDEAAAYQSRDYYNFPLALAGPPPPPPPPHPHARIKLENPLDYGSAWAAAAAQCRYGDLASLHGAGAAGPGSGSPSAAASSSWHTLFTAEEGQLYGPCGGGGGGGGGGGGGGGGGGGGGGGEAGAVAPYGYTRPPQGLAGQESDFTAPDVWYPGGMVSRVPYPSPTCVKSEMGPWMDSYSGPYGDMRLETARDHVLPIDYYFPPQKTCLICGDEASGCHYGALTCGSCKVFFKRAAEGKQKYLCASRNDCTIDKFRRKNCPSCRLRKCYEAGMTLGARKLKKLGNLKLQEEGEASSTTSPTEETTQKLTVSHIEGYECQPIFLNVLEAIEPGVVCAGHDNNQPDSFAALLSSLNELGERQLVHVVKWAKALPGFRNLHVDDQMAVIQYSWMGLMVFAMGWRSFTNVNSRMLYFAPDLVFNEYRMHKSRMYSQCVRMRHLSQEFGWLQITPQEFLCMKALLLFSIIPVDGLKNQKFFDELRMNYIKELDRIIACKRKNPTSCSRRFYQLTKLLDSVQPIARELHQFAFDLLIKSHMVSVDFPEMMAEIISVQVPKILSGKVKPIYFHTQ
Description: AR binding assay (3H-methyltrienolone displacement). As to the method: The following methods are for evaluating the in vitro biology properties of the test articles. • a. RBC HotSpot Poly(ADP-ribose) Polymerases 1 (PARP1) and Poly(ADP-ribose) Polymerases 2 (PARP2) Assays: The assay principle is radioisotope-based filter binding assay where incorporation of radioisotope-labeled NAD^+ into the substrate captured on filter is detected after washout free NAD^+. Data were analyzed using Excel and GraphPad Prism software for IC50 curve fits. Each assay was conducted with PJ34 as a positive control. • i. PARP1 assay: Human recombinant PARP1 at a final concentration of 2.5 nM was combined with histone H4 (20 μM) and test articles at various concentrations in reaction buffer (50 mM Tris-HCL, pH 8.0, 50 mM NaCl, 10 mM MgCl2, 1 mM DTT, 1% DMSO, and 20 μg/mL activated DNA). The solution was inoculated for 20 min at room temperature and the reaction initiated by adding [adenylate-^32P]-Nicotinamide Adenine Dinucleotide, ^32P-NAD^+ at a final concentration of 10 μM. After incubation for 2 hour at room temperature, the reaction mixture was filtered and washed with 0.75% phosphoric acid for radioactivity detection. • ii. PARP2 assay: Human recombinant PARP2 at a final concentration of 2.5 nM was combined with histone H3 (20 μM) and test articles at various concentrations in reaction buffer (50 mM Tris-HCL, pH 8.0, 50 mM NaCl, 10 mM MgCl2, 1 mM DTT, 1% DMSO, and 20 μg/mL activated DNA). The solution was inoculated for 20 min at room temperature and the reaction was initiated by adding [adenylate-^32P]-Nicotinamide Adenine Dinucleotide, ^32P-NAD^+ at a final concentration of 10 μM. After incubation for 2 hour at room temperature, the reaction mixture was filtered and washed with 0.75% phosphoric acid for radioactivity detection. • b. AR binding assay: AR in LNCaP cytosol was used for determining the binding affinity of test articles and the reference compound—progesterone (Sigma, Cat: E2785, St. Louis, MO). IC50s were determined using 8 concentrations/compound. Cytosol was plated at 200 μg/well (100 μL) into a 96-well conical polypropylene plate (Agilent, Cat: 5042-1385, Santa Clara, CA) and mixed with 3 μL of test compound. After adding 100 μL of ^3H-methyltrienolone (PerkinElmer, Cat: NET590250UC, San Jose, CA), the plate was sealed and shaken at 300 rpm at 4° C. for 24 hours. Post incubation, 100 μL of radioligand adsorption buffer containing 10 mM Tris-HCl, pH 7.4; 1.5 mM EDTA; 1 mM DTT; 0.25% charcoal; 0.0025% dextran was added to individual well. Plate was shaken for 15 min at 4′C followed by centrifugation at 3000 rpm for 30 min at 4° C. 150 μL of supernatant was transferred into scint-tube (PerkinElmer, Cat: 6000192) and mixed with 2 mL of Ultima Gold Cocktail (PerkinElmer, Cat: 6013329). Radioactivity was counted using a TriCarb 2910 TR scintillation counter (PerkinElmer). Inhibition of the radioactivity by test articles were calculated using the equation below: % Inhibition=(1−(Assay well−Average_LC)/(Average_HC−Average_LC))×100%.
IC50 values were calculated and graphed using the model “log(inhibitor) vs. response—Variable slope” included in GraphPad Prism 5 (San Diego, CA). The Ki values were further calculated using the equation below where [L] was the radioligand concentration (1 nM) using in this study. Kd value was 0.332 nM. Ki=IC50/(1+[L]/Kd) c. AR transactivation: Human AR cloned into a CMV vector backbone was used for the transactivation study. HEK-293 cells were plated at 80,000 cells per well of a 24 well plate in DME+5% csFBS. Twenty four hours later, the cells were transfected using Lipofectamine (Invitrogen, Carlsbad, CA) with 0.25 μg GRE-LUC, 0.01 μg CMV-LUC (renilla luciferase) and 25 ng of the AR in OPTIMEM medium. The cells were treated 24 hrs after transfection with various ligands (10^−12 to 10^−5 M final concentrations) and luciferase assay were performed 48 hours after transfection. […]

Another test deals with T2, DNA-PK (Homo sapiens, UniProt P78527).
T2 construct: purchased Invitrogen, Carlsbad, CA PR9107A
Briefly: DNA-PK inhibition (Reaction Biology HotSpot Kinase Assay, radioisotope filter binding). In kind it is biochemical. The following applies: 5 nM DNA-PK, 20 μM DNA-PKtide, 33P-ATP.

Structures are written as SMILES.

Turning to `CCN1C(=O)CNc2ncc(-c3ccc(-c4ncn(CCCCCCNC(=O)c5ccc(N6C(=S)N(c7ccc(C#N)c(C(F)(F)F)c7)C(=O)C6(C)C)cc5F)n4)nc3C)nc21` [Compound 3.1, 4-(3-(4-cyano-3-(trifluoromethyl)phenyl)-5,5-dimethyl-4-oxo-2-thioxoimidazolidin-1-yl)-N-(6-(3-(5-(8-ethyl-7-oxo-5,6,7,8-tetrahydropyrazino[2,3-b]pyrazin-2-yl)-6-methylpyridin-2-yl)-1H-1,2,4-triazol-1-yl)hexyl)-2-fluorobenzamide], on AR in LNCaP cytosol, the Ki was found to be 21 nM. The molecule also had an IC50 on DNA-PK greater than 10000 nM.
`CCN1C(=O)CN(CCCCCCNC(=O)c2ccc(N3C(=S)N(c4ccc(C#N)c(C(F)(F)F)c4)C(=O)C3(C)C)cc2F)c2ncc(-c3ccc(-c4nc[nH]n4)nc3C)nc21` [Compound 3.2, 4-(3-(4-cyano-3-(trifluoromethyl)phenyl)-5,5-dimethyl-4-oxo-2-thioxoimidazolidin-1-yl)-N-(6-(4-ethyl-6-(2-methyl-6-(1H-1,2,4-triazol-3-yl)pyridin-3-yl)-3-oxo-3,4-dihydropyrazino[2,3-b]pyrazin-1(2H)-yl)hexyl)-2-fluorobenzamide]: the Ki on AR in LNCaP cytosol amounted to 19 nM. At DNA-PK, this molecule showed an IC50 greater than 10000 nM.

As usually defined, the Ki is the dissociation constant of the complex between target and ligand, obtained from inhibition or displacement. In general, IC50 refers to the concentration that inhibits the measured activity by half.
